Read-outs that look alike come from different tables or passages of the source.
Legend:
[1] = pharmacokinetics of MNA in rat plasma after single intravenous administration; format: in vivo, rats; details: 100 mg/kg
Method: (§1) A method using high performance liquid chromatography combined with tandem mass spectrometry (LC/ESI-MS/MS) was developed and validated to determine concentrations of 1-methylnicotinamide (MNA) in rat plasma. […] The pharmacokinetic parameters were determined by a non-compartmental model using Phoenix WinNonlin software (Pharsight, Sannyvale, CA, USA).

[2] = pharmacokinetics of MNA in rat plasma after single intragastric administration; format: in vivo, rats; details: 100 mg/kg; for AUC0→∞ / F / t0.5 / Cmax / MRT / tmax: MNA in rat plasma, single intragastric administration
Method: as §1

[3] = TG technique under a nitrogen atmosphere
Method: Thermal stability was determined using the TG technique under a nitrogen atmosphere (with the use of the Mettler Toledo Star TGA/DSC 1 device).

[4] = hypertensive (2K1C) rats
platelets = details: hypertensive rats after arterial thrombosis, 3 days per os twice a day (FIG. 2)
Method: The blood was diluted with 0.9% NaCl at a ratio of 1:1 and stirred in an aggregation cuvette at 1200 rpm. Samples of the stirred blood were collected after 20, 40 and 60 min and at "0" time and mixed with a cold solution of ASA (final concentration: 500 µM) at a ratio of 1:1. In these samples, TxB2 was determined using the ELISA assay, according to the manual provided by the manufacturer of the reagent kit.

fibrin = details: hypertensive (2K1C) rats, 30 mg/kg i.v.
[5] = test system: plasma coagulation system
Method: Coagulation parameters: prothrombin time (PT), activated partial thromboplastin time (aPTT), fibrinogen concentration by Caluss and the prothrombin time percentage ratio (Quick index) were assessed in frozen plasma (-80°C) using a Caog-Chrom 3003 Bio-ksel Grudzi ? dz device.

[6] = colour change from pale yellow to brown
normotensive rats = details: 30 mg/kg i.v., single dose 10 min before induction of thrombosis
Method: The normotensive and hypertensive rats were then anesthetised with pentorbital (40 mg/kg, i.p.). After removing the skin in the neck region, an approximately 0.5 cm long section of the left common carotid artery was isolated. To avoid haemorrhaging, the isolation was performed by tearing the surrounding tissues of the artery without the use of sharp instruments. The method of arterial thrombosis (according to Schumacher et al., 1996) with own modification (Kramkowski et al., 2012) involves damage to the endothelium isolated from a section of the artery by electric current (1 mA, 5-15 V, 10 min.). The anode is a stainless steel wire with a bent hook-shaped tip placed in a holder to remain stable during the experiment. Its tip was placed under the artery. A piece of parafilm was placed under the artery to keep it isolated. The cathode was a needle inserted subcutaneously in the hind limb region. Once the stimulation is completed, the formation of thrombus lasts 45 minutes. After this time, the artery was ligated at both sides of the thrombus, and the damaged fragment containing the thrombus was excised. The thrombus was quantitatively extracted from the artery and transferred to a previously tared microscope cover slip. The thrombi were allowed to dry (at room temperature and average humidity) and weighed not earlier than after 24 hours.

[7] = remark: listed apart in the source
Method: The complete blood count was assessed approximately 2 minutes after collection in fresh citrated blood using an automatic Horiba ABC Vet device. The following parameters were assessed: white blood cell count (WBC), red blood cell count (RBC), haemoglobin (HGB), haematocrit (HCT), mean corpuscular volume (MCV), mean corpuscular haemoglobin (MCH), mean corpuscular haemoglobin concentration (MCHC) and platelet count (PLT).

[8] = hypertensive (2K1C) rats, 30 mg/kg i.v.
[9] = hypertensive (2K1C) rats, 30 mg/kg p.o.
[10] = normotensive rats, 10 mg/kg i.v.
[11] = normotensive rats, 30 mg/kg i.v.
[12] = normotensive rats, 100 mg/kg i.v.

Structure (SMILES): C[n+]1cccc(C(N)=O)c1.[Cl-] [MNACl, 3-carbamoyl-1-methylpyridinium chloride, reference compound]
- AUC0→∞ [1]: 4,362,231 ± 999,203 µg·min/L
- Co [1]: 141,311 ± 56,500 µg/L
- clearance [1]: 24 ± 5 mL/min/kg
- t0.5 [1]: 162.5 ± 76.2 min
- Vd ([1]; read-out: Vss): 1.06 ± 0.35 L/kg
- MRT ([1]; rat, plasma, iv): ~43 min
- AUC0→∞ [2]: 407,132 ± 164,906 µg·min/L
- F [2]: 9.33%
- t0.5 [2]: 247.4 ± 201 min
- Cmax ([2]; po, read-out: Cmax): 2810 ng/mL
- MRT ([2]; po, read-out: MRT (converted)): 359 min
- tmax ([2]; po, read-out: tmax (converted)): 57.5 min

Structure (SMILES): C[n+]1cccc(C(N)=O)c1.O=N[O-] [MNANO2, 3-carbamoyl-1-methylpyridinium nitrite]
- Tonset [3]: 195 °C
- Tonset5% [3]: 170 °C
- Concentration of MNA in plasma after collecting thrombus ([4]; 30 mg/kg i.v.): 8.72 ± 4.90 µM
- Concentration of MNA in plasma after collecting thrombus ([4]; 30 mg/kg p.o.): 5.76 ± 3.78 µM
- thromboxane B2 (TxB2) production by platelets ex vivo (platelets): inhibition of thromboxane B2 (TxB2) production
- AUC0→∞ [1]: 6,948,716 ± 1,810,664 µg·min/L
- Cl [1]: 15 ± 3 mL/min/kg
- Co [1]: 138,078 ± 33,208 µg/L
- Vss [1]: 0.63 ± 0.1 L/kg
- t0.5 [1]: 61.7 ± 19.6 min
- AUC0→∞ [2]: 638,056 ± 167,631 µg·min/L
- Cmax [2]: 8,881 ± 5,506 µg/L
- F [2]: 9.18%
- MRT [2]: 232 ± 38.3 min
- t0.5 [2]: 178.4 ± 12.2 min
- tmax [2]: 15 ± 10 min
- concentration in rat plasma compared to MNACl administration ([2]; intragastric administration): three times higher
- time of occurrence of the maximum concentration compared to MNACl administration ([2]; intragastric administration): four times shorter
- Generation of fibrin (AUC) (fibrin): 186.00±10.23
- APTT [5, 8]: 18.46 ± 0.81 s
- Fglevel [5, 8]: 2.36 ± 0.13 ng/mL
- PT [5, 8]: 17.40 ± 0.69 s
- QUICK [5, 8]: 63.50±5.04
- APTT [5, 9]: 17.79 ± 0.62 s
- Fglevel [5, 9]: 2.61 ± 0.10 ng/mL
- PT [5, 9]: 18.16 ± 0.47 s
- QUICK [5, 9]: 62.00±4.01
- APTT [5, 10]: 2.00 ± 2.68 s
- Fglevel [5, 10]: 2.04 ± 0.09 ng/mL
- PT [5, 10]: 18.23 ± 0.68 s
- QUICK [5, 10]: 61.75±5.42
- APTT [5, 11]: 25.67 ± 6.07 s
- Fglevel [5, 11]: 2.15 ± 0.28 ng/mL
- PT [5, 11]: 18.10 ± 0.81 s
- QUICK [5, 11]: 63.00±7.57
- APTT [5, 12]: 26.27 ± 2.89 s
- Fglevel [5, 12]: 1.96 ± 0.11 ng/mL
- PT [5, 12]: 19.17 ± 0.27 s
- QUICK [5, 12]: 53.33±1.67
- solubility (DMSO): soluble
- solubility (diethyl ether): not soluble
- solubility (ethanol): soluble
- solubility (hexane): not soluble
- solubility (methanol): soluble
- solubility (water): soluble
- stability of aqueous solutions [6]: not stable over time
- Thrombus weight (normotensive rats): 0.78 ± 0.05 mg
- HCT [7, 8]: 38.35±0.49%
- HGB [7, 8]: 12.27 ± 0.16 g/dL
- MCH [7, 8]: 17.51±0.26 pg per cell
- MCHC [7, 8]: 31.65 ± 0.21 g/dL
- MCV [7, 8]: 54.86 ± 0.60 fL
- PLT [7, 8]: 621±18 103/µL
- RBC [7, 8]: 7.36±0.19 106/µL
- WBC [7, 8]: 2.87±0.35 106/µL
- HCT [7, 9]: 40.07±0.03%
- HGB [7, 9]: 13.23 ± 0.24 g/dL
- MCH [7, 9]: 18.77±0.71 pg per cell
- MCHC [7, 9]: 32.97 ± 0.58 g/dL
- MCV [7, 9]: 57.00 ± 1.53 fL
- PLT [7, 9]: 630±12 103/µL
- RBC [7, 9]: 7.05±0.18 106/µL
- WBC [7, 9]: 2.93±0.26 106/µL
- HCT [7, 10]: 30.03±1.26%
- HGB [7, 10]: 12.15 ± 0.26 g/dL
- MCH [7, 10]: 25.05±0.53 pg per cell
- MCHC [7, 10]: 40.93 ± 1.00 g/dL
- MCV [7, 10]: 61.25 ± 0.25 fL
- PLT [7, 10]: 493±17 10^3/µl
- RBC [7, 10]: 4.90±0.18 106/µl
- WBC [7, 10]: 1.95±0.35 106/µl
- HCT [7, 11]: 29.07±1.61%
- HGB [7, 11]: 12.30 ± 0.26 g/dL
- MCH [7, 11]: 25.73±0.92 pg per cell
- MCHC [7, 11]: 42.40 ± 1.32 g/dL
- MCV [7, 11]: 60.68 ± 0.33 fL
- PLT [7, 11]: 489±23 10^3/µl
- RBC [7, 11]: 4.80±0.29 106/µl
- WBC [7, 11]: 1.77±0.43 106/µl
- HCT [7, 12]: 33.33±1.31%
- HGB [7, 12]: 12.67 ± 0.47 g/dL
- MCH [7, 12]: 25.53±0.48 pg per cell
- MCHC [7, 12]: 37.97 ± 0.18 g/dL
- MCV [7, 12]: 62.00 ± 1.16 fL
- PLT [7, 12]: 566±56 10^3/µl
- RBC [7, 12]: 5.38±0.21 106/µl
- WBC [7, 12]: 1.12±0.19 106/µl

Source: patent EP3008041B1, “3-CARBAMOYL-1-METHYL[…], PROCESS FOR ITS PREPARATION AND ITS USE” (Uniwersytet Jagiellonski, priority 2013, dated 2014)
